The values below come from PMC6478789, “A chemical toolbox for the study of bromodomains and epigenetic signaling” (Nature Communications, 2019).

In assay [1] the target is BRPF2. The conditions noted are these: ITC data, cited from earlier work.
Assay [2] addresses T1, STK3 (Homo sapiens, UniProt Q13188).
T1 construct: Recombinant protein domains (bromodomain or kinases) at a concentration of 2 μM
T1 sequence (Q13188 27-278 limits assumed): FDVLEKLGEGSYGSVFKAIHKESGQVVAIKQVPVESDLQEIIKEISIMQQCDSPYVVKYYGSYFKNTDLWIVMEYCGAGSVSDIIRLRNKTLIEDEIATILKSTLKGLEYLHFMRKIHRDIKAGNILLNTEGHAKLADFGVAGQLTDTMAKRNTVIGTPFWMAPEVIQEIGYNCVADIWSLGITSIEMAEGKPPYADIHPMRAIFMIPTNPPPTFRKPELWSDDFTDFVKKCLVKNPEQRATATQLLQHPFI
The assay is described as follows: Temperature shift assay (protein kinases). Type of assay: binding. Conditions: 10 μM probe; average of three measurements. The procedure:
(§1) Temperature shift assays have been described by Fedorov et al.[46]. Recombinant protein domains (bromodomain or kinases) at a concentration of 2 μM in 10 mM HEPES, pH 7.5, and 500 mM NaCl were mixed with 10 μM of chemical probes. Temperature-dependent protein unfolding profiles were measured using a Real-Time PCR Mx3005p machine (Stratagene).

The target of assay [3] is T2, EPHA2 (Homo sapiens, UniProt P29317).
T2 construct: Recombinant protein domains (bromodomain or kinases) at a concentration of 2 μM
T2 sequence (P29317 613-875 limits assumed): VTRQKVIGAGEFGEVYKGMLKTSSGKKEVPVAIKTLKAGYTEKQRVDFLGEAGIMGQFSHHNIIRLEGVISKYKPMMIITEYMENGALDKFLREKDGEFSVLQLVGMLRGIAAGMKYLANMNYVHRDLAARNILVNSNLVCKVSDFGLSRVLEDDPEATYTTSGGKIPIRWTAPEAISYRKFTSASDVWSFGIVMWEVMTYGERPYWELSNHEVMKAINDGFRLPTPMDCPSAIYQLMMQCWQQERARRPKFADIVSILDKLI
Kind of assay: Temperature shift assay (protein kinases). The format is binding. The conditions noted are these: 10 μM probe; average of three measurements. The protocol:
as §1

The target in assay [4] is T3, DAPK3 (Homo sapiens, UniProt O43293).
T3 construct: Recombinant protein domains (bromodomain or kinases) at a concentration of 2 μM
The assay is described as follows: Temperature shift assay (protein kinases). The format is binding. Conditions: 10 μM probe; average of three measurements. The procedure:
as §1

Assay [5] has as its target T4, BRAF (Homo sapiens, UniProt P15056).
T4 construct: Recombinant protein domains (bromodomain or kinases) at a concentration of 2 μM
The assay is described as follows: Temperature shift assay (protein kinases). Type of assay: binding. Conditions: 10 μM probe; average of three measurements. The procedure: as §1

The target in assay [6] is T5, CAMK1G (Homo sapiens, UniProt Q96NX5).
T5 construct: Recombinant protein domains (bromodomain or kinases) at a concentration of 2 μM
Kind of assay: Temperature shift assay (protein kinases). The format is binding. Conditions: 10 μM probe; average of three measurements. The protocol:
as §1

Assay [7] concerns the target T6, TTK (Homo sapiens, UniProt P33981).
T6 construct: Recombinant protein domains (bromodomain or kinases) at a concentration of 2 μM
T6 sequence (P33981 525-791 limits assumed): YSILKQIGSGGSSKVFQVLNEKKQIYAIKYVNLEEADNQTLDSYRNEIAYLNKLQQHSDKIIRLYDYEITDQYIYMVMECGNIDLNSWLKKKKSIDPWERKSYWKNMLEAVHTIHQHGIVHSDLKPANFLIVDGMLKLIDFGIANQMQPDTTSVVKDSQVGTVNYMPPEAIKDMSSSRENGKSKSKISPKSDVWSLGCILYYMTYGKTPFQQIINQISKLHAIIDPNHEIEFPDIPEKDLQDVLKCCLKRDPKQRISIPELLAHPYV
Kind of assay: Temperature shift assay (protein kinases). Type of assay: binding. The conditions noted are these: 10 μM probe; average of three measurements. The procedure: as §1

Assay [8] addresses T7, MAPK8 (Homo sapiens, UniProt P45983).
T7 construct: Recombinant protein domains (bromodomain or kinases) at a concentration of 2 μM
Kind of assay: Temperature shift assay (protein kinases). Conditions: 10 μM probe; average of three measurements. The format is binding. The protocol: as §1

Assay [9] has as its target T8, AURKB (Homo sapiens, UniProt Q96GD4).
T8 construct: Recombinant protein domains (bromodomain or kinases) at a concentration of 2 μM
Kind of assay: Temperature shift assay (protein kinases). Type of assay: binding. The conditions noted are these: 10 μM probe; average of three measurements. The procedure: as §1

In assay [10] the target is T9, FES (Homo sapiens, UniProt P07332).
T9 construct: Recombinant protein domains (bromodomain or kinases) at a concentration of 2 μM
Kind of assay: Temperature shift assay (protein kinases). The format is binding. Conditions: 10 μM probe; average of three measurements. The procedure: as §1

Assay [11] addresses T10, CBP (Homo sapiens, UniProt Q92793).
T10 construct: Recombinant protein domains (bromodomain or kinases) at a concentration of 2 μM
The conditions noted are these: ITC data, cited from earlier work.

Assay [12] concerns the target SMARCA2(iso.A) (Homo sapiens, UniProt P51531). The assay is described as follows: BROMOscan ligand-binding assay.
Description: (§2) BROMOscan is a binding assay based on the well-known KINOMEscan technology. This assay measures the binding of a DNA-tagged bromodomain to an immobilized BRD ligand. If an inhibitor is present, it will compete with the bromodomain binding to the immobilized ligand, resulting in reduction of a quantitative PCR (qPCR) signal in a dose-dependent manner.
For assay [13], the target named is T11, BAZ1B (Homo sapiens, UniProt Q9UIG0).
T11 sequence (Q9UIG0 1339-1443 limits assumed): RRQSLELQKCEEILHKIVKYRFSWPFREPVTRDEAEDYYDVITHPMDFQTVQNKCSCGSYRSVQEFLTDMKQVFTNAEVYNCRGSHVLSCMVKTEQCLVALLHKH
Kind of assay: BROMOscan ligand-binding assay.
Description: as §2

Where [14] appears, read: KD (BROMOscan), sheet prints no unit (nM).
Setting [15] is: KD, BROMOscan Gene Symbol BAZ1B.

Where two headings read alike, the source gives them in different places. Bounds are passed on as bounds.

Chain of SMARCA2(iso.A) (P51531 1378-1506 limits assumed): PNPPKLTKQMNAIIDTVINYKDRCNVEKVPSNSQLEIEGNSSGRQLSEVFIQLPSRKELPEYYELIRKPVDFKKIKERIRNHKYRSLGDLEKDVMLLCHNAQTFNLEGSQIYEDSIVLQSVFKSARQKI
T5 sequence (Q96NX5 23-277 limits assumed, species assumed): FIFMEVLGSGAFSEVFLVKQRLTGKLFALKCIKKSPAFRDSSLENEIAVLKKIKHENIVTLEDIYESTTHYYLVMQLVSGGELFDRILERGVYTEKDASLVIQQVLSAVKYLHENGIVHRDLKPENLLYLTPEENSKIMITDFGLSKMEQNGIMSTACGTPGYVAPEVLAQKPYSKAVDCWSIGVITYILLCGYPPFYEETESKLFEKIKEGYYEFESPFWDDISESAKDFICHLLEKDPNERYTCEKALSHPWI
T8 sequence (Q96GD4 77-327 limits assumed, species assumed): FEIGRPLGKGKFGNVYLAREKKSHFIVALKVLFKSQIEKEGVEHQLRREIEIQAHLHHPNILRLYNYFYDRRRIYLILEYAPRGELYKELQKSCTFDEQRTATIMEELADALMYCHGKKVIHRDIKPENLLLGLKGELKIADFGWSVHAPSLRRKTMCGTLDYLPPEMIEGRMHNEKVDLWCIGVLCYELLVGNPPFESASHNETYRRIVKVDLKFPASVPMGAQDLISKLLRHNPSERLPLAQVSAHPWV
T4 sequence (P15056 457-717 limits assumed, species assumed): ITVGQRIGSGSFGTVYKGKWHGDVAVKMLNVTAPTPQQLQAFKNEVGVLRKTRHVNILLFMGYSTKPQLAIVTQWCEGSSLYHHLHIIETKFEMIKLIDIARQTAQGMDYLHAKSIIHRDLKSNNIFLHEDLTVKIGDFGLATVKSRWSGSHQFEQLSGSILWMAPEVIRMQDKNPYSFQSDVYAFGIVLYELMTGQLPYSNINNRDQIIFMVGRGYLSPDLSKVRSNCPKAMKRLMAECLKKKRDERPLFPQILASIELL
T9 sequence (P07332 561-822 limits assumed, species assumed): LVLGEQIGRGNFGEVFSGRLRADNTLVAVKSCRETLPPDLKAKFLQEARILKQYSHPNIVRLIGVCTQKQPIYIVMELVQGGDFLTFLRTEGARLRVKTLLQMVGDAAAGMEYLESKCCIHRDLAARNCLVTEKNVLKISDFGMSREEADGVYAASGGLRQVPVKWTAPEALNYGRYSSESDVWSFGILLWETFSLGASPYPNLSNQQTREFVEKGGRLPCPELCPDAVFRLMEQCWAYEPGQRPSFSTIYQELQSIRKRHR
T7 sequence (P45983 26-321 limits assumed, species assumed): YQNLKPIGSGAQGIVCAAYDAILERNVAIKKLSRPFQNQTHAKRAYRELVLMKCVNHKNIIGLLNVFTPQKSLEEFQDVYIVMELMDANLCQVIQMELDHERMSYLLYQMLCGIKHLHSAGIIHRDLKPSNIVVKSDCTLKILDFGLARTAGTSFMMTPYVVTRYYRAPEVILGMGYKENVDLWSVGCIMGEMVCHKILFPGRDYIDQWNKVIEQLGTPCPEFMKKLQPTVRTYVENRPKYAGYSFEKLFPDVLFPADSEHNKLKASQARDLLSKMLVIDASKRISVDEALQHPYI
T3 sequence (O43293 13-275 limits assumed, species assumed): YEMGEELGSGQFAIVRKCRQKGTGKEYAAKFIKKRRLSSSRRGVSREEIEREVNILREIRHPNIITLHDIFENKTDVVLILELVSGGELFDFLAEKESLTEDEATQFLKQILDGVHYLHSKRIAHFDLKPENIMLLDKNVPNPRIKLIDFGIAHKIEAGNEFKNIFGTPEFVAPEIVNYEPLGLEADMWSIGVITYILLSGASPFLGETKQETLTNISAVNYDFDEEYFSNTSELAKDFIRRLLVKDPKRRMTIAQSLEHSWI
T10 sequence (Q92793 1085-1192 limits assumed): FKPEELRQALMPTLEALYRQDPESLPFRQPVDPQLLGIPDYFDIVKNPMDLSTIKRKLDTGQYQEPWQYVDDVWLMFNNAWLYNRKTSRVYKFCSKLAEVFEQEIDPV

Consider `Cc1cc2c(cc1N1C(=O)c3cccc4c(CCCO)ccc(c34)C1=O)n(C)c(=O)n2C` [BAY-299], for which the Kd in [1] (ref 13 (suppl.)) is 44 nM; in [11] (ref 13 (suppl.), read-out: KD (nM), off target CBP), 1390 nM. The Temperature shift in assay [2] is reported as 0.1 Kelvin; in [3], 2.0 Kelvin; in assay [4], -0.2 Kelvin; in [5], 0.1 Kelvin; in assay [6] it was -0.6 Kelvin; in assay [7], -0.1 Kelvin. In addition, the Temperature shift in assay [8] is on record as -0.4 Kelvin; in assay [9], 0.2 Kelvin; in assay [10] it was 0.0 Kelvin.
Regarding `CCCOc1ccn2c(C(C)=O)cc(-c3ccccc3S(C)(=O)=O)c2c1` [GSK2801], the Kd in [12] (setting [14]) is more than 30000 nM; in [12] (KD, BROMOscan Gene Symbol SMARCA2(iso.A)) it was more than 100000 nM; in assay [13] (setting [14]) it was more than 30000 nM; in assay [13] (setting [15]), more than 100000 nM.
Regarding `CCC(=O)N1CCOc2c(cc(-c3ccc(OC)c(OC)c3)cc2OCC2CCCN(C)C2)C1` (centres unmarked) [I-CBP112], the Kd in assay [12] (setting [14]) was more than 30000 nM; in assay [12] (KD, SMARCA2(iso.A)), more than 100000 nM; in [11] (ref 9 (suppl.), read-out: KD (nM), CBP), 151 nM; in [13] (setting [14]), more than 30000 nM; in [13] (setting [15]), more than 100000 nM. For the same compound, the Temperature shift in assay [2] is 0.0 Kelvin; in assay [3] it was 1.1 Kelvin; in [4], 0.0 Kelvin; in assay [5], -0.1 Kelvin; in [6] it was -0.2 Kelvin; in assay [7], 0.0 Kelvin. Further, the values for the Temperature shift in assay [8], in assay [9] and in [10] were 0.3 Kelvin, 0.3 Kelvin and -0.1 Kelvin, respectively.
As to `Cc1nnc2c3ccccc3c(N[C@@H](C)[C@H](c3ccccc3)N(C)C)nn12` [L-Moses], the Temperature shift is 0.0 Kelvin in assay [2]; 1.1 Kelvin in assay [3]; 0.2 Kelvin in assay [4]; -0.1 Kelvin in [5]; -0.3 Kelvin in assay [6]; -0.5 Kelvin in assay [7]. Also, the Temperature shift in assay [8] is given as 0.6 Kelvin; in assay [9], 0.4 Kelvin; in assay [10] it was -0.2 Kelvin.
With `COc1cc2c(cc1NS(=O)(=O)c1ccc(Br)cc1C)n(C)c(=O)n2C` [OF-1], in [1] (ref 11 (suppl.)), the dissociation constant Kd was 505 nM.
`O=C(C=CN1CC2CC1CN2c1ccccn1)c1ccccc1O` (centres unmarked) [PFI-3]: the dissociation constant (Kd) in assay [13] (setting [14]) was more than 30000 nM; in [13] (KD, BAZ1B), more than 100000 nM.
With `COc1ccc(CCc2nc3cc(-c4c(C)noc4C)ccc3n2C[C@H](C)N2CCOCC2)cc1Cl` [SGC-CBP30], the Kd is more than 30000 nM in assay [12] (setting [14]); more than 100000 nM in assay [12] (KD, BROMOscan, SMARCA2(iso.A)); more than 30000 nM in assay [13] (setting [14]); more than 100000 nM in assay [13] (KD, BROMOscan, BAZ1B).
In the case of `O=C(O)c1ccccc1O` [Salicylic Acid], the Kd in assay [12] (KD, SMARCA2(iso.A)) was 950000 nM; in assay [13] (KD, BAZ1B) it was more than 1.4e+07 nM.

Broadly, the Kd is the constant that tells how readily two partners part at equilibrium.
